# Assay results reported in patent US20260256794A1, “Oral Dynamine Formulations and Methods Therefor” (Ortho-Nutra, LLC, priority 2023, published 2026).
# Tests used:
# subjects [1] = test: Hemodynamics: heart rate; type: in vivo, human
# Protocol: Hemodynamics Systolic Blood Pressure, Diastolic Blood Pressure, Heart Rate were taken Pre and Post Stroop Test on Day 0; Pre and Post Stroop Test after 4 Days of Supplementation 0, 60, 120, and 180 minutes after ingestion of 4th dose.
# For hemodynamic parameters, systolic blood pressure, diastolic blood pressure, and heart rate were taken pre- and post-Stroop Test on Day 0, and pre- and post-Stroop Test after 4 Days of Supplementation 0, 60, 120, and 180 minutes after ingestion of 4th dose.
# subjects [2] = test: Stroop-Average Time; type: in vivo, human; settings: unit assumed
# Protocol: (§1) The inventors have discovered various compositions and methods of improving various indices of neurological and neuroenergetic functions by administering 100 mg (once daily) dosages of DYNAMINE™ (dosage between 1.0 and 1.4 mg/kg) as described in the following:
# (§2) All neuroenergetic tests as listed below were performed and data were collected after 0 and 4 days of assigned supplements (with acute effects also measured at day 4 over 180 minutes):
# Stroop Color Matching Test (Total Score, Accuracy %, Average Score): Day 0: Two blocks of three tests were completed. Each block of three tests was separated by 10 minutes. The median of each block was taken and then those two scores were averaged. This value was used in all statistical analysis. Day 4: Three tests were completed at four time points: after 0, 60, 120, and 180 minutes of taking dose #4. The median of the three tests at each time point was used in all statistical analysis.
# The Stroop Color and Word Test (SCWT, or Stroop test) is a neuropsychological test extensively used to assess the ability to inhibit cognitive interference that occurs when the processing of a specific stimulus feature impedes the simultaneous processing of a second stimulus attribute, well-known as the Stroop effect (see e.g., Front Psychol. 2017; 8:557). Here, subjects were required to read three different tables as fast as possible. Two of them represent the “congruous condition” in which participants are required to read names of colors (‘color-words’) printed in black ink (W) and name different color patches (C). However, in the third table, the color-word (CW) condition, color-words are printed in an inconsistent color ink (e.g., the word “red” is printed in green ink). In this incongruent condition, participants are required to name the color of the ink instead of reading the word. In other words, the participants are required to perform a less automated task (i.e., naming ink color) while inhibiting the interference arising from a more automated task (i.e., reading the word). This difficulty in inhibiting the more automated process is called the Stroop effect. The Stroop test is predominantly used to measure the ability to inhibit cognitive interference. However, some sources also report its application to measure other cognitive functions such as attention, processing speed, cognitive flexibility, and working memory.
# Stroop-Average Time: The results for this test were based on an average time score comparing performance between Day 0 and Day 4, with Day 4 including tests over a duration of 180 minutes. Results were collected as noted above and Table 45 provides exemplary results for Day 0 versus Day 4 ratings, whereas Table 46 provides exemplary acute results measured at Day 4 over a duration of 180 minutes.
# subjects [3] = test: VAS-Ability to concentrate; type: in vivo, human; design: VAS-Ability to concentrate rating, Mean / VAS-Ability to concentrate changes from baseline, Mean Difference ± SE / VAS-Ability to concentrate area under the curve, Mean Difference ± SE / VAS-Ability to concentrate area under the curve, Mean: scale not given here
# Protocol: as §1, §2
# (§3) All VAS Measurement (Energy, Sustained Energy, Mental Stamina, Ability to Focus, Ability to Concentrate, Motivation to Accomplish Difficult Tasks, Drive, Vigor, Level of Positive Outlook, Mood, Feelings of Well-Being, Tolerate Stress); Day 0: Two tests were completed. The average of both scores was computed and this value was used in all statistical analysis. Day 4 (0 minutes after ingesting dose #4): Two tests were completed. The average of both scores was computed and this value was used in all statistical analysis. Day 4 (60, 120, and 180 minutes after ingesting dose #4): One test was completed at each time point.
# (§4) Neuroenergic parameters are inherently subjective, nevertheless significant in human behavior and well-being. To allow for a standardization among different subjects, the following experiments were performed using a visual analog scale using anchor statements (lowest possible/highest possible) in which subjects were asked to rate their subjective experience with respect to the specific neuroenergic parameters tested.
# VAS-Ability to concentrate: In this subjective test, subjects were asked to rate their personal level of energy on a VAS scale using the prompt of “My ability to concentrate right now is . . . ” (with rating lowest possible to highest possible)”. Results were collected as noted above and Table 16 provides exemplary results for Day 0 versus Day 4 ratings, whereas Table 17 provides exemplary acute results measured at Day 4 over a duration of 180 minutes.
# subjects [4] = test: VAS-Mood; type: in vivo, human; design: VAS-Mood rating, Mean / VAS-Mood changes from baseline, Mean Difference ± SE / VAS-Mood area under the curve, Mean Difference ± SE / VAS-Mood area under the curve, Mean: scale not given here
# Protocol: as §1, §2, §3, §4
# VAS-Mood: In this subjective test, subjects were asked to rate their personal level of energy on a VAS scale using the prompt of “My mood right now is . . . ” (with rating lowest possible to highest possible)”. Results were collected as noted above and Table 31 provides exemplary results for Day 0 versus Day 4 ratings, whereas Table 32 provides exemplary acute results measured at Day 4 over a duration of 180 minutes.
# [5] = cited from earlier work
# [6] = 100 mg once daily, Day 4, 0 min after dose #4
# [7] = 100 mg once daily, Day 4, 60 min after dose #4
# [8] = 100 mg once daily, Day 4, 120 min after dose #4
# [9] = 100 mg once daily, Day 4, 180 min after dose #4
# [10] = 100 mg once daily, Day 4, 0-180 min
# [11] = 100 mg once daily, Day 4, 0-180 min, vs Group A (placebo)
# [12] = 100 mg once daily, Day 4, 60 min-0 min, vs Group A (placebo)
# [13] = 100 mg once daily, Day 4, 120 min-0 min, vs Group A (placebo)
# [14] = 100 mg once daily, Day 4, 180 min-0 min, vs Group A (placebo)
smiles,measurement,setting,value
"COc1nc2c(c(=O)n1C)n(C)c(=O)n2C [methylliberine, 2-methoxy-1,7,9-trimethylpurine-6,8-dione]","Heart rate, Mean","subjects [1]; 100 mg once daily, Day 4",69.8 beats/min
same,"Heart rate, Mean",subjects [1]; Day 0 (before supplementation),71.4 beats/min
same,"Stroop average time, Mean",subjects [2]; [6],0.961 s
same,"Stroop average time, Mean",subjects [2]; [7],0.929 s
same,"Stroop average time, Mean",subjects [2]; [8],0.921 s
same,"Stroop average time, Mean",subjects [2]; [9],0.908 s
same,"Stroop average time, Mean",subjects [2]; Day 0 (before supplementation),0.983 s
same,"VAS-Ability to concentrate area under the curve, Mean",subjects [3]; [10],1162
same,"VAS-Ability to concentrate area under the curve, Mean Difference ± SE",subjects [3]; [11],48.1 ± 38.7
same,"VAS-Ability to concentrate area under the curve, effect size d",subjects [3]; [11],0.16
same,"VAS-Ability to concentrate rating, Mean",subjects [3]; [6],5.9
same,"VAS-Ability to concentrate changes from baseline, Mean Difference ± SE",subjects [3]; [12],0.26 ± 0.26
same,"VAS-Ability to concentrate changes from baseline, effect size d",subjects [3]; [12],0.28
same,"VAS-Ability to concentrate rating, Mean",subjects [3]; [7],6.5
same,"VAS-Ability to concentrate changes from baseline, Mean Difference ± SE",subjects [3]; [13],0.15 ± 0.27
same,"VAS-Ability to concentrate changes from baseline, effect size d",subjects [3]; [13],0.14
same,"VAS-Ability to concentrate rating, Mean",subjects [3]; [8],6.5
same,"VAS-Ability to concentrate changes from baseline, Mean Difference ± SE",subjects [3]; [14],0.70 ± 0.23
same,"VAS-Ability to concentrate changes from baseline, effect size d",subjects [3]; [14],0.68
same,"VAS-Ability to concentrate rating, Mean",subjects [3]; [9],6.8
same,"VAS-Ability to concentrate rating, Mean",subjects [3]; Day 0 (before supplementation),5.9
same,"VAS-Mood area under the curve, Mean",subjects [4]; [10],1220
same,"VAS-Mood area under the curve, Mean Difference ± SE",subjects [4]; [11],37.4 ± 250.7
same,"VAS-Mood area under the curve, effect size d",subjects [4]; [11],0.12
same,"VAS-Mood rating, Mean",subjects [4]; [6],6.1
same,"VAS-Mood changes from baseline, Mean Difference ± SE",subjects [4]; [12],0.38 ± 0.18
same,"VAS-Mood changes from baseline, effect size d",subjects [4]; [12],0.43
same,"VAS-Mood rating, Mean",subjects [4]; [7],6.7
same,"VAS-Mood changes from baseline, Mean Difference ± SE",subjects [4]; [13],0.45 ± 0.27
same,"VAS-Mood changes from baseline, effect size d",subjects [4]; [13],0.41
same,"VAS-Mood rating, Mean",subjects [4]; [8],7.0
same,"VAS-Mood changes from baseline, Mean Difference ± SE",subjects [4]; [14],0.72 ± 0.30
same,"VAS-Mood changes from baseline, effect size d",subjects [4]; [14],0.65
same,"VAS-Mood rating, Mean",subjects [4]; [9],7.1
same,"VAS-Mood rating, Mean",subjects [4]; Day 0 (before supplementation),6.5
same,effect on pharmacokinetics of caffeine,[5]; methylliberine 100 mg administered in combination with caffeine 150 mg,will alter pharmacokinetic effects of caffeine
same,half-life,"[5]; oral, 25 mg and 100 mg, healthy subjects",1 to 1.4 h
